Results taken from patent US20230285556A1, “METHODS AND COMPOSITIONS FOR TREATING CANCER” (Omeros Corporation, priority 2021, published 2023).
Values joined by “and” are separate entries in the source; they are usually repeats but may differ in a detail not shown here. Equal entries are not always repeated.

Tests used:
human CD8 T cells [1] = test: Example 5: human CD8 T cell expansion with cAMP pathway and p38 inhibitors, IL-2 after restimulation; format: cell-based; details: 500 μM Rp-8-Br-cAMPS, 0.5 μM doramapimod
Experimental: (§1) DMSO vehicle control • 2. […] 500 μM Rp-8-Br-cAMPS • 4. […] 0.5 μM doramapimod • 6. Media control
(§2) or the following individual conditions for the experiment shown in FIG. 8, each ±0.5 μM doramapimod: • 1. DMSO vehicle control • 2. 500 μM Rp-8-Br-cAMPS • 3. […] 5 μM ESI-09
(§3) On days 3, 5, and 7, cultures were washed and seeded at 0.5 cells million per well with the same small molecule inhibitor conditions, and with IL-7 and IL-15. On day 10, cells were washed twice (12 mL media each), and restimulated in quadruplicate in 96-well round-bottom plates with the following conditions: • 0.1 mL X-VIVO™ 15 media (Lonza) • 0.05 million cells from each condition • 0.1 million Human T-Activator CD3/CD28 Dynabeads® (ThermoFisher)
(§4) After overnight culture, supernatants were harvested and analyzed for IL-2 content (MesoScale Discovery).

human CD8 T cells [2] = test: Example 5: T cell number increase during 10-day expansion; format: cell-based
Experimental: as §1, §2, §3

human CD8 T cells [3] = test: Example 4: human CD8 T cell expansion with GPR174, A2A, PKA or EPAC inhibitors, IL-2 after restimulation; format: cell-based; details: 300 nM Compound #10, 100 nM ZM-241385, 500 μM Rp-8-Br-cAMPS, 5 μM ESI-09; 5.5 hours restimulation
Experimental: Purified human CD8 T cells were cultured in 24-well plates with the following conditions per well: • 2 mL X-VIVO™ 15 media (Lonza) • 0.4 million human CD8 T cells (Donor A) • 2 million Human T-Activator CD3/CD28 Dynabeads® (ThermoFisher) • 10 ng/mL human IL-7 (R&D Systems) • 10 ng/mL human IL-15 (R&D Systems)
and the following individual conditions, ±300 nM Compound #10: • 1. DMSO vehicle control • 2. […] 500 μM Rp-8-Br-cAMPS • 4. 5 μM ESI-09
On days 3, 5, and 7, cultures were washed and seeded at 0.5 cells million per well with the same small molecule inhibitor conditions, and with IL-7 and IL-15.
After 5.5 hours of culture, supernatants were harvested and analyzed for IL-2 content (MesoScale Discovery).

EG7 tumors = test: Example 7: adoptive transfer of inhibitor-precultured OT-1 T cells into EG7 tumor-bearing mice; format: in vivo, mouse
Experimental: (§5) and the following individual conditions: • 1. DMSO vehicle control • 2. 0.2 μM doramapimod • 3. 500 μM Rp-8-Br-cAMPS • 4. 0.2 μM doramapimod+500 μM Rp-8-Br-cAMPS
On day 6 cells were seeded in 6-well plates with […] per well, and on day 8 cells were seeded in T75 flasks in 30 mL media to obtain enough cells to transfer into EG7 tumor-bearing mice.
C57BL/6 female mice were implanted with 6 million EG7 tumor cells subcutaneously on day 4 of the OT-1 T cell expansion. On day 6 of tumor growth (day 10 of OT-1 T cell expansion) OT-1 T cells were washed and injected retro-orbitally into tumor bearing mice that had been sorted into 4 groups with equal tumor volume distributions (n=8). Via retroorbital injection, mice received 2 million OT1 T cells of each of the 4 culture conditions. Tumor volume (mm^3) was calculated as 0.5×(length×width^2), where length represents the largest tumor diameter and width represents the perpendicular tumor diameter. Mice were euthanized when the sum of the two measurements exceeded 30 mm.

[4] = test system: OT-I TCR transgenic CD8 T cells; test: Example 6: OT-I CD8 T cell expansion with PKA and p38 inhibitors, IL-2 after restimulation with EG7 cells; format: cell-based, mouse; details: 0.2 μM doramapimod, 500 μM Rp-8-Br-cAMPS
Experimental: as §5
On day 8, cells were immunophenotyped with the following antibodies: anti-CD8 BV570, anti-CD62L eFluor450, anti-TCF1/TCF7 PE, anti-CD39 PerCP-eFluor710, anti-CD69 BV605, anti-PD-1 BV711, anti-CTLA-4 APC, and LIVE/DEAD™ Fixable Green Dead Cell Stain.
as §4

[5] = test system: OT-I TCR transgenic CD8 T cells; test: Example 6: immunophenotyping of OT-I T cells on day 8; format: cell-based, mouse; details: 8 days of culture
Experimental: as §5
On days 2, 4, 6, and 8, cells were counted, washed, and reseeded at 0.5 million per well in 2 mL media with the same 4 doramapimod/Rp-8-Br-cAMPS conditions and with recombinant mouse IL-2 and IL-7 (5 ng/mL each). On day 8, cells were immunophenotyped with the following antibodies: anti-CD8 BV570, anti-CD62L eFluor450, anti-TCF1/TCF7 PE, anti-CD39 PerCP-eFluor710, anti-CD69 BV605, anti-PD-1 BV711, anti-CTLA-4 APC, and LIVE/DEAD™ Fixable Green Dead Cell Stain.

[6] = test system: OT-I TCR transgenic CD8 T cells; test: Example 8: OT-I CD8 T cell 9-day expansion with PKA, p38, PI3Kδ inhibitors, IL-2 after restimulation with EG7 cells; format: cell-based, mouse
Experimental: DMSO vehicle control • 2. 0.5 μM doramapimod • 3. 500 μM Rp-8-Br-cAMPS • 4. 0.5 μM doramapimod+500 μM Rp-8-Br-cAMPS • 5. 1 μM idelalisib • 6. 1 μM idelalisib+0.5 μM doramapimod • 7. 1 μM idelalisib+500 μM Rp-8-Br-cAMPS • 8. 1 μM idelalisib+0.5 μM doramapimod+500 μM Rp-8-Br-cAMPS
On days 2, 4, 6, and 8, cells were counted, washed and reseeded at 0.5 million per well in 2 mL media with the same 8 conditions and with recombinant mouse IL-2 and IL-7 (5 ng/mL each). […] Cells were also washed three times (12 mL media each), and restimulated in quintuplicate in 96-well round-bottom plates with the following conditions: • 0.1 mL RP10 media • 0.05 million OT-I T cells from each condition • 0.05 million EG7 cells
as §4

GPR174 [7] = target: T1, GPR174 (Homo sapiens, UniProt Q9BXC1); test: CRA (EC50) of GPR174 inhibitor compounds, tested as described in US 20200276190; format: cell-based; details: multiple values = separate experiments
Experimental: (§6) Where present, multiple EC50 values correspond to values obtained in separate experiments. […] The activity of the compounds was tested as described in US 20200276190, the disclosure of which is incorporated herein by reference.

GPR174 [8] = target: T1, GPR174; test: Human GPR174 CRE activity / Gs signaling; format: cell-based
Experimental: as §6

T1 sequence (Q9BXC1 whole entry): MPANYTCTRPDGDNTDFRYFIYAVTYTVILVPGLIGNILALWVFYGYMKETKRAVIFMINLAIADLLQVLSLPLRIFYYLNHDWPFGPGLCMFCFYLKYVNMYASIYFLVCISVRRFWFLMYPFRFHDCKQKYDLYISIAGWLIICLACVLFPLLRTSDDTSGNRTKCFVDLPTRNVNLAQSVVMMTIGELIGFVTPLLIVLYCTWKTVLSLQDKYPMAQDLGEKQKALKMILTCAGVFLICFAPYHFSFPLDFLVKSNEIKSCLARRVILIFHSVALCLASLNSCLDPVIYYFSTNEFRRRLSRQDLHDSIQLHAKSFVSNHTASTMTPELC

For `Nc1ncnc2c1nc(Br)n2[C@@H]1O[C@@H]2COP([O-])(=S)O[C@H]2[C@H]1O.[Na+]` (single isomer, unassigned) [Rp-8-Br-cAMPS, 8-Br-cAMPS, Rp-isomer], the “IL-2 production following restimulation, fold above vehicle control (FIG. 8)” value (human CD8 T cells [1]; 10 μM HJC-0197, 5 μM ESI-09) was 2 fold, the “IL-2 production following restimulation, fold vs vehicle (FIG. 7)” value (human CD8 T cells [1]; GPR174+A2A inhibitors, overnight restimulation) was 3.6 fold and the “T cell growth during the 10-day culture relative to vehicle-treated cells (FIG. 8)” value (human CD8 T cells [2]) was about 2 fold. For the same molecule, the “fold-increase in T cell number during the 10-day expansion (FIG. 7)” value (human CD8 T cells [2]; vehicle and media controls approximately 50-fold) was 170 fold, the “IL-2 production following restimulation, fold increase vs vehicle (FIG. 6)” value (human CD8 T cells [3]) was 3.7 fold and the “tumor growth / tumor volume after transfer of precultured OT-1 T cells” value (EG7 tumors; 2 million OT-1 T cells expanded 10 days with 0.2 μM doramapimod and/or 500 μM Rp-8-Br-cAMPS, retro-orbital, relative to vehicle control cells) was “significantly halted and delayed tumor growth”. For the same molecule, the “survival of tumor-bearing mice” value (EG7 tumors; OT-1 T cells precultured with inhibitor(s), relative to vehicle group) was “intermediate survival times”, the “IL-2 production from 8-day OT-I cultures, fold vs vehicle control” value ([4]; day 8 restimulation with EG7 cells) was 5.3 fold and the “IL-2 production from 10-day OT-I cultures, fold over vehicle control” value ([4]; day 10 restimulation with EG7 cells) was 18 fold. The “downregulation of CTLA-4” value [5] was “particularly effective at downregulating CTLA-4”, the “increase in cells expressing both CD62L and TCF1/TCF7 relative to vehicle control” value [5] was “smaller increases” and the “percentage of OT-I T cells expressing both CD39 and CD69” value ([5]; vehicle 22%) was “smaller reductions”. For the same molecule, the “Fold-change in IL-2 production relative to Vehicle control” value ([6]; Idelalisib (agent together with 1 μM idelalisib)) was 89.9 and the “Fold-change in IL-2 production relative to Vehicle control” value ([6]; column Vehicle (without idelalisib), 0.5 μM doramapimod, 500 μM Rp-8-Br-cAMPS) was 1.6.

With `CCOC(=O)N1CCN(c2cc(N3CCC(C)CC3)c(F)cc2[N+](=O)[O-])CC1` [Compound 1] the EC50 (GPR174 [7]) was 1500 nM and 900 nM.

`CC(=O)N1CCN(c2cc(N3CCCCC3)c(F)cc2[N+](=O)[O-])CC1` [Compound 2] was tested, and the EC50 (GPR174 [7]) was 3300 nM and 3000 nM and 5100 nM.

`CC(=O)c1ccc(N2CCN(C(=O)c3ccc(F)cc3)CC2)c(F)c1` [Compound 3] was tested, and the “Human GPR174 CRE Activity (type of modulation)” value (“Human GPR174 CRE Activity” for short) (GPR174 [8]) was “Antagonist or allosteric modulator” and the EC50 (GPR174 [7]) was 4100 nM.

`CCCC(=O)c1ccc(N2CCN(S(=O)(=O)c3ccc(C)cc3)CC2)c(F)c1` [Compound 4] was tested, and the “Human GPR174 CRE Activity” value (GPR174 [8]) was “Antagonist”, the “competition with the GPR174 agonist LysoPS” value (GPR174 [8]) was “found to compete with the GPR174 agonist LysoPS” and the EC50 (GPR174 [7]) was 200 nM.

In the case of `O=C(c1ccccc1)N1CCN(c2cc(N3CCCCC3)c(F)cc2[N+](=O)[O-])CC1` [Compound 6], the EC50 (GPR174 [7]) is reported as 1400 nM.

With `Cc1ccc(-c2nnc(Nc3ccccc3)c3ccccc23)cc1S(N)(=O)=O` [Compound 19] the “Human GPR174 CRE Activity” value (GPR174 [8]) was “Antagonist or allosteric modulator”.

For `Cc1ccccc1Nc1nnc(-c2ccc(C)c(S(N)(=O)=O)c2)c2ccccc12` [Compound 20], the “Human GPR174 CRE Activity” value (GPR174 [8]) was “Antagonist or allosteric modulator” and the EC50 (GPR174 [7]) was 5000 nM.

In the case of `Cc1cc(Cc2ccc(NC(=O)c3cccs3)c(C)c2)ccc1NC(=O)c1cccs1` [Compound 21], the “Human GPR174 CRE Activity” value (GPR174 [8]) is reported as “Antagonist or allosteric modulator” and the EC50 (GPR174 [7]) is reported as 2700 nM.
